From patent publication US20260108548A1, “COMPOSITION OF PAEONIFLORIN AND ISOLIQUIRITIGENIN AND USE THEREOF” (HENAN UNIVERSITY OF CHINESE MEDICINE, priority 2023, published 2026)

What was measured:
Type in all cases: in vivo, SD rats
[1] = test system: rat pulmonary fibrosis model; experiment: R value comprehensive evaluation of 8 indicators, Example 1; conditions: for Total efficacy related indicator R value: 8 indicators, R=1 best effect, R=2 no corrective effect, X ± SE, N = 8
Experimental: The data were standardized and the Rcomprehensive value data set was established (Rcomprehensive=R−(−2)). […] When Rcomprehensive<1, it means that the comprehensive corrective degree of the drug on such indicators exceeds the normal value.
A total of 8 indicators, i.e., lung function (FVC, FEV0.3, IC, Cydn), lung tissue pathology (H&E staining, Masson staining), and collagen deposition (CoL I, α-SMA) were calculated using the R value comprehensive evaluation method.

[2] = test system: rat pulmonary fibrosis model; experiment: Lung tissue pathology, H&E and Masson staining, Szapiel scoring, Example 1; conditions: for Alveolitis (score): H&E staining; for Alveolitis (score) / Pulmonary fibrosis (score): score 0-3, doses per Table 4, 14 days, X ± SE, N = 6; for Pulmonary fibrosis (score): Masson staining
Experimental: (§1) A rat pulmonary fibrosis model was prepared using a one-time intratracheal instillation of bleomycin. After the rat was anesthetized by intraperitoneal injection of 10% chloral hydrate (3.0 ml/kg), it was tilted back and fixed on a rat board and irradiated with light source on the throat, and the glottis was seen to open and close in an orderly manner with breathing when the tongue was gently lifted to open the mouth. The indwelling needle was gently pushed into the trachea as the glottis opened and closed, the needle core was pulled out, and whether tracheal intubation was successful was verified by swing of a cotton thread. Bleomycin was injected into the trachea at a dose of 5 mg/kg, and 0.5 ml of air was further injected to ensure the depth of the drug. The rat was held upright and rocked from side to side to ensure even distribution of the drug in the lung. The anesthetized rat was placed on an electric blanket to maintain body temperature. After waking up, it is placed into a corresponding cage. The rats were fed normally until the 28th day, drinking pure water and eating sterile feed freely every day.
(§2) The modeling day was set as day 0.
The left lung was fixed with 10% formaldehyde for 72 hours, embedded in paraffin, sectioned at 4 μm for HE and Masson staining.
Pathological scoring of alveolitis and pulmonary fibrosis was performed according to the Szapiel method, the degree of alveolitis was determined by HE staining, and the degree of pulmonary fibrosis was determined by Masson staining.
The pathological changes in lung tissue were observed using an optical microscope. 6 sections were selected from each group and 6 fields were selected from each section.

CoL I = CoL I expression in lung tissue by immunohistochemistry, Example 1; conditions: for COL I (IOD): lung tissue IHC, doses per Table 4, 14 days, X ± SE, N = 6; for expression of CoL I protein, compared with the model group: P<0.01, P<0.05
Experimental: as §1, §2
(§3) The detection was performed by Immunohistochemistry.
(§4) The lung tissue was sliced into 4 μm sections and baked at 60° C. for 3 hours. The paraffin sections were dewaxed in xylene, dehydrated in gradient alcohols, and washed in distilled water for 2 minutes in order. The washed sections were then boiled in 0.01 M citrate buffer in a microwave oven for antigen retrieval. A 3% […] was added dropwise to the sections to block endogenous peroxidase. After the sections were blocked with a 5% BSA blocking solution and incubated at 37° C. for 30 minutes, the primary antibody was added dropwise thereto (the dilution ratio was 1:500 for CoL I, and 1:2000 for α-SMA), and the sections were incubated overnight in a humid box at 4° C. HRP-labeled goat anti-rabbit secondary antibody was added dropwise, and the sections were incubated at 37° C. for 20 minutes; and then SABC was added dropwise and the sections were incubated at 37° C. for 30 minutes. Thereafter, a freshly prepared DAB chromogenic solution was added dropwise, and the sections were observed under a microscope, and the color development was stopped once brownish yellow appeared. The sections were counterstained with hematoxylin for 30 seconds, differentiated with a 1% hydrochloric acid in alcohol for 3 seconds; and dehydrated in gradient alcohols in sequence. The sections were dried in a fume hood, sealed with neutral gum, and dried in the air. Images were collected with Olympus-DP70 microscope (Image-Pro Plus 6.0, IPP 6.0), 6 fields were randomly selected for each section, and the image integrated optical density (IOD) was calculated.

α-SMA = α-SMA expression in lung tissue by immunohistochemistry, Example 1; conditions: for α-SMA (IOD): lung tissue IHC, doses per Table 4, 14 days, X ± SE, N = 6; for expression of α-SMA protein, compared with the model group: P<0.05
Experimental: as §1, §2, §3, §4

[3] = test system: rat pulmonary fibrosis model; experiment: Lung function (FinePointe PFT) in bleomycin pulmonary fibrosis rats, Example 1
Experimental: as §1, §2
(§5) Before collecting the sample, the rat was anesthetized and submitted to a tracheotomy, and the tracheal tube was inserted into the rat's trachea and fixed. The FinePointe™ series PFT measurement system was used to detect the rat's forced vital capacity (FVC), forced expiratory volume in 0.3 s (FEV 0.3), vital capacity (VC), and dynamic lung compliance (Cydn).

[4] = test system: rat pulmonary fibrosis model; experiment: Lung function in bleomycin pulmonary fibrosis rats, Example 2; conditions: for Cydn / FEV0.3 / FVC: isoliquiritigenin, paeoniflorin, combination each 0.55 mg/kg/d intragastric, day 29-42, X ± SE, N = 10
Experimental: In order to evaluate the difference in the efficacy of isoliquiritigenin and paeoniflorin alone and in combination, a study was conducted by splitting the Formula 8 into isoliquiritigenin, paeoniflorin and combination thereof, each adopting the dose of 0.55 mg/kg/d.
The experimental materials and research methods were the same as those in Example 1.
A total of 72 rats were randomly divided into blank group, model group, isoliquiritigenin group, paeoniflorin group, combination group, and pirfenidone group, 6 groups in total, 12 rats in each group, and 6 female/group, 6 male/group. The modeling day was set as day 0. From the 29th day, the blank group (normal rats without modeling) and the model group were administered intragastrically with physiological saline (2 ml/rat), the isoliquiritigenin group was administered with isoliquiritigenin (0.55 mg/kg/d), the paeoniflorin group was administered with paeoniflorin (0.55 mg/kg/d), and the combination group was administered with isoliquiritigenin+paeoniflorin (0.55 mg/kg/d), once daily, for 14 days, and the samples were collected at the end of the 42nd day.
as §5, with “rats were” for “rat was”

[5] = test system: rat pulmonary fibrosis model; experiment: as above; conditions: for IC: isoliquiritigenin, paeoniflorin, combination each 0.55 mg/kg/d intragastric, day 29-42, X ± SE, N = 10
[6] = test system: rat pulmonary fibrosis model; experiment: Lung tissue pathology, H&E and Masson staining, Szapiel scoring, Example 2; conditions: for Alveolitis (score): H&E staining; for Alveolitis (score) / Pulmonary fibrosis (score): each 0.55 mg/kg/d, 14 days, X ± SE, N = 6; for Pulmonary fibrosis (score): Masson staining
Experimental: The experimental materials and research methods were the same as those in Example 1. […] The modeling day was set as day 0. […] The left lung was fixed with 10% formaldehyde for 72 hours, embedded in paraffin, sectioned at 4 μm for HE and Masson staining. Pathological scoring of alveolitis and pulmonary fibrosis was performed according to the Szapiel method, the degree of alveolitis was determined by HE staining, and the degree of pulmonary fibrosis was determined by Masson staining. The pathological changes in the lung tissue were observed using an optical microscope. 6 sections were selected from each group and 6 fields were selected from each section.

[7] = bleomycin 5 mg/kg intratracheal, intragastric once daily day 29-42, doses per Table 4, X ± SE, N = 10

Compound | Total efficacy related indicator R value [1] | Alveolitis (score) [2] [score] | Pulmonary fibrosis (score) [2] [score] | alveolitis scores, compared with the model group ([2]; P<0.01, P<0.05) | COL I (IOD) (CoL I) | α-SMA (IOD) (α-SMA) | Cydn [3, 7] [mL/s] | FEV0.3 [3, 7] | expression of CoL I protein, compared with the model group (CoL I) | FEV0.3, compared with the model group ([4]; P<0.01, P<0.05) | Cydn [4] [mL/s] | FEV0.3 [4] [mL/s] | FVC [4] [mL/s] | IC [5] [mL/s] | Alveolitis (score) [6] [score] | Pulmonary fibrosis (score) [6] [score] | pulmonary fibrosis score, compared with the model group ([6]; P<0.01, P<0.05) | expression of α-SMA protein, compared with the model group (α-SMA) | IC, compared with the model group ([3]; P<0.01, P<0.05) | also measured
COc1ccc(-c2oc3c(CC=C(C)C)c(O[C@@H]4O[C@H](CO)[C@@H](O)[C@H](O)[C@H]4O)cc(O)c3c(=O)c2O[C@@H]2O[C@@H](C)[C@H](O)[C@@H](O)[C@H]2O)cc1 [Formula 3, icariin] | 1.76 ± 0.16^∘^ | 0.94 ± 0.39 | 1.33 ± 0.31 | significantly reduced | 17.80 ± 1.44 | 12.03 ± 1.87 | 0.34 ± 0.05 | 10.46 ± 1.58 mL/s |  |  |  |  |  |  |  |  |  |  |  | 
O=C(/C=C/c1ccc(O)cc1)c1ccc(O)cc1O [Formula 4, isoliquiritigenin] | 1.82 ± 0.11^∘∘ | 1.72 ± 0.25 | 1.78 ± 0.33 |  | 15.54 ± 2.59 | 12.20 ± 0.89 | 0.30 ± 0.03 | 10.42 ± 1.43 mL/s | significantly reduced | increased | 0.32 ± 0.04 | 11.09 ± 1.01 | 11.34 ± 0.78 | 9.03 ± 0.88 | 1.68 ± 0.30 | 1.74 ± 0.31 | could reduce |  |  | 
COc1ccc(-c2cc(=O)c3c(OC)c(OC)c(OC)c(OC)c3o2)cc1OC [Formula 5, nobiletin] | 1.48 ± 0.46 | 1.39 ± 0.54 | 1.56 ± 0.49 |  | 18.40 ± 0.89 | 9.030 ± 0.8 | 0.35 ± 0.02 | 11.44 ± 1.41 mL/s |  |  |  |  |  |  |  |  |  | significantly reduced |  | Cydn, compared with the model group ([3]; P<0.05): increased
C[C@H]1CC[C@@H]2N(C1)C[C@H]1[C@@H]3C[C@H]4[C@@H](C[C@H](O)[C@H]5C[C@@H](O)CC[C@@]54C)[C@@H]3CC[C@@H]1[C@]2(C)O [Formula 6, peimine] | 1.57 ± 0.29 | 1.17 ± 0.19 | 1.39 ± 0.23 | significantly reduced | 17.37 ± 0.89 | 9.647 ± 0.8 | 0.30 ± 0.03 | 12.04 ± 1.36 mL/s |  |  |  |  |  |  |  |  |  | significantly reduced |  | 
Cc1ccc(=O)n(-c2ccccc2)c1 [Pirfenidone] | 1.61 ± 0.32^#^ | 1.33 ± 0.24 | 1.33 ± 0.37 |  | 10.41 ± 0.63 | 12.57 ± 1.17 | 0.33 ± 0.03 | 10.68 ± 0.97 mL/s | significantly reduced | increased | 0.33 ± 0.03 | 13.46 ± 1.04 | 12.34 ± 1.11 | 10.77 ± 0.83 | 1.43 ± 0.28 | 1.46 ± 0.39 | significantly reduced |  | significantly increased | IC, compared with the model group ([5]; P<0.01, P<0.05): increased; alveolitis score, compared with the model group ([6]; P<0.01, P<0.05): significantly reduced
paeoniflorin [Formula 7] | 1.41 ± 0.27^##□▪ | 1.44 ± 0.27 | 0.94 ± 0.16 |  | 13.61 ± 1.90 | 10.57 ± 0.36 | 0.31 ± 0.03 | 14.70 ± 1.25^##Δ ml/s | significantly reduced | increased | 0.31 ± 0.54 | 12.88 ± 0.98 | 13.49 ± 1.17 | 9.62 ± 0.54 | 1.52 ± 0.29 | 1.65 ± 0.19 | could reduce | significantly reduced | significantly increased | R value comprehensive evaluation, comparison between treatment groups [1]: better than the Formula 3 (icariin), the Formula 4 (isoliquiritigenin), and the Formula 5 (nobiletin); pulmonary fibrosis scores, compared with the model group ([2]; P<0.01, P<0.05): significantly reduced; FVC, compared with the model group ([4]; P<0.01, P<0.05): increased; FEV0.3, compared with the model group ([3]; P<0.01, P<0.05): significantly increased; FVC, compared with the model group ([3]; P<0.01, P<0.05): significantly increased; FEV0.3, compared with the pirfenidone group ([3]; P<0.05): increased; FVC, compared with the pirfenidone group ([3]; P<0.05): increased; FVC [3, 7]: 15.95 ± 1.36^##Δ ml/s; IC [3, 7]: 9.84 ± 0.75 mL/s
